IC50 data for three compounds are collected here from US9580429B2, “Pyrrolo[3,2-D]pyrimidin-4-one derivatives and their use in therapy” (ASTRAZENECA AB, priority 2004, dated 2017).

In general, pIC50 refers to −log10 of the IC50, conventionally taken in molar units.

pIC50: −log10 of the molar value.

The target in the assay is T1, human MPO (Homo sapiens, UniProt P05164).
T1 sequence (P05164 49-745): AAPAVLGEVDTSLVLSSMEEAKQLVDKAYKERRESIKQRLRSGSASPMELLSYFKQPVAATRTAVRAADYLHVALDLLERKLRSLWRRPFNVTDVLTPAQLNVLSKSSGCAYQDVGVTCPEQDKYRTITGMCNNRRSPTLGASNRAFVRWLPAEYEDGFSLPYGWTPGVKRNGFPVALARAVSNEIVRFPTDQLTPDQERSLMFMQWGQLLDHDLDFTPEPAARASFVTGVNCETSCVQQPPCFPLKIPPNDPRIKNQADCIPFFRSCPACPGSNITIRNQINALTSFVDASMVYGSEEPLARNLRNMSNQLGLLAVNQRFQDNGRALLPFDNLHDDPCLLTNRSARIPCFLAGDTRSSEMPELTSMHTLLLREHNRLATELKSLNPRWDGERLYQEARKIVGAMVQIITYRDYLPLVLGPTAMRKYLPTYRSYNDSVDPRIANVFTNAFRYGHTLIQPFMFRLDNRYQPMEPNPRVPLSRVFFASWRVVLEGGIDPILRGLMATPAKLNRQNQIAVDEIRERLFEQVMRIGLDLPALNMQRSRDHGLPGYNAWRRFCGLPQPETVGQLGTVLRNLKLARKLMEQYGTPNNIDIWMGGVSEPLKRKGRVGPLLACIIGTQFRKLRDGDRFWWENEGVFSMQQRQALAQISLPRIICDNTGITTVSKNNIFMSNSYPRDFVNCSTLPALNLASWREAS
In words: MPO inhibition screen (TMB oxidation, absorbance). The assay is classed as biochemical. To be noted: in the presence of tyrosine (final 8 μM); human MPO 2.5 nM; H2O2 100 μM. On the procedure: Methods for the determination of MPO inhibitory activity are disclosed in patent application WO 02/090575. The pharmacological activity of compounds according to the invention was tested in the following screen in which the compounds were either tested alone or in the presence of added tyrosine:
Assay buffer: 20 mM sodium/potassium phosphate buffer pH 6.5 containing 10 mM taurine and 100 mM NaCl.
Developing reagent: 2 mM 3,3′,5,5′-tetramethylbenzidine (TMB), 200 μM KI, 200 mM acetate buffer pH 5.4 with 20% DMF.
To 10 μl of diluted compounds in assay buffer, 40 μl of human MPO (final concentration 2.5 nM), with or without 20 μM tyrosine (final concentration, if present, 8 μM), was added and the mixture was incubated for 10 minutes at ambient temperature. Then 50 μl of H2O2 (final concentration 100 μM), or assay buffer alone as a control, were added. After incubation for 10 minutes at ambient temperature, the reaction was stopped by adding 10 μl 0.2 mg/ml of catalase (final concentration 18 μg/ml). The reaction mixture was left for an additional 5 minutes before 100 μl of TMB developing reagent was added. The amount of oxidised 3,3′,5,5′-tetramethylbenzidine formed was then measured after about 5 minutes using absorbance spectroscopy at about […]. IC50 values were then determined using standard procedures.
As for `CC(C)Cn1c(=S)[nH]c(=O)c2[nH]ccc21` [Example 2, 1-Isobutyl-2-thioxo-1,2,3,5-tetrahydro-pyrrolo[3,2-d]pyrimidin-4-one], the pIC50 is 6.59.

Regarding `CCCOc1cccc(Cn2c(=S)[nH]c(=O)c3[nH]ccc32)c1OCCOC` [Example 5, 1-[2-(2-Methoxyethoxy)-3-propoxybenzyl]-2-thioxo-1,2,3,5-tetrahydro-pyrrolo[3,2-d]pyrimidin-4-one], the pIC50 is 6.66. For `CCOC(C)(C)Cn1c(=S)[nH]c(=O)c2[nH]ccc21` [Example 11, 1-(2-Ethoxy-2-methylpropyl)-2-thioxo-1,2,3,5-tetrahydro-pyrrolo[3,2-d]pyrimidin-4-one] the value was 5.96.
